From patent US8426449B2, “Aminoalkylphenyl antagonists of prostaglandin D2 receptors” (Panmira Pharmaceuticals, LLC, priority 2008, dated 2013)
pIC50: −log10 of the molar value.

Target: T1, human DP2 receptor (Homo sapiens, UniProt Q9Y5Y4)
T1 construct: expressed in transfected cells
T1 sequence (Q9Y5Y4 1-395): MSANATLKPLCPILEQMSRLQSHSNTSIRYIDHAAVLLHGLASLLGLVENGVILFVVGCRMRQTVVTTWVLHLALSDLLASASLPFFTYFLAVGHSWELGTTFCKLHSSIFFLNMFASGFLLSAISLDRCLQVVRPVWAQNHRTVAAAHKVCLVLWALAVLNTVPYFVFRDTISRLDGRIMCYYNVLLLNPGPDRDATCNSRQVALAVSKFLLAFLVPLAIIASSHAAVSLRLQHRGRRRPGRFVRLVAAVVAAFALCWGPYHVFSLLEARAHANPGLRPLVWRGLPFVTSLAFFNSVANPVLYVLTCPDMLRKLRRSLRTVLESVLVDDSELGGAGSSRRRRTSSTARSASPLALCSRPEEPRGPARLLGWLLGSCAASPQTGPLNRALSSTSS
Assay: DP2/CRTH2 radioligand binding assay using [3H]PGD2
Settings: hDP2 (CRTH2) binding assay, membranes of HEK293 cells expressing recombinant human DP2
Experimental: The ability of a compound to bind to the human DP2 receptor is assessed via a radioligand binding assay using [^3H]PGD2. HEK293 cells stably expressing recombinant human DP2 are resuspended in 10 mM Hepes, 7.4 containing 1 mM DTT, lysed and centrifuged at 75,000×g to pellet the membranes. The membranes are resuspended in 10 mM Hepes, 7.4 containing 1 mM DTT and 10% glycerol to approximately 5 mg protein/ml. Membranes (2-10 μg protein/well) are incubated in 96-well plates with 1 nM [^3H]PGD2 and test compound in Assay Buffer (50 mM Hepes, 10 mM MnCl2, 1 mM EDTA, plus or minus 0.2% human serum albumin, pH 7.4) for 60 minutes at room temperature. The reactions are terminated by rapid filtration through Whatman GF/C glass fibre filter plates. The filter plates were pre-soaked in 0.33% polyethylenimine for 30 minutes at room temperature then washed in Wash Buffer (50 mM Hepes, 0.5 M NaCl pH 7.4) prior to harvesting. After harvesting, the filter plates are washed 3 times with 1 ml cold Wash Buffer then dried. Scintillant is then added to the plates and the radioactivity retained on the filters is determined on a Packard TopCount (Perkin Elmer). Specific binding is determined as total radioactive binding minus non-specific binding in the presence of 10 μM PGD2. IC50s were determined using GraphPad prism analysis of drug titration curves.

Row | SMILES | pIC50
1 | CCN(Cc1cc(NC(=O)c2ccc(Cl)cc2)ccc1Oc1cc(CC(=O)O)ccc1OC)C(C)=O [Compound 1-46, {3-[2-[(Acetyl-ethyl-amino)-methyl]-4-(4-chloro-benzoylamino)-phenoxy]-4-methoxy-phenyl}-acetic acid] | > 6.52
2 | COC(=O)N(CCc1ccccc1)Cc1cc(Br)ccc1Oc1cccc(CC(=O)O)c1 [Compound 1-4, (3-{4-Bromo-2-[(methoxycarbonyl-phenethyl-amino)-methyl]-phenoxy}-phenyl)-acetic acid] | > 6.52
3 | CN(Cc1cc(C(F)(F)F)ccc1Oc1cccc(CC(=O)O)c1)S(=O)(=O)c1ccc(Cl)cc1 [Compound 1-23, [3-(2-{[(4-Chloro-benzenesulfonyl)-methyl-amino]-methyl}-4-trifluoromethyl-phenoxy)-phenyl]-acetic acid] | > 6.52
4 | COC(=O)N(Cc1cc(N(C)C(C)=O)ccc1Oc1cccc(C(C)C(=O)O)c1)[C@@H](C)Cc1ccccc1 (stereo partly drawn) [Compound 1-40, 2-[3-(4-(Acetyl-methyl-amino)-2-{[methoxycarbonyl-((S)-1-methyl-2-phenyl-ethyl)-amino]-methyl}-phenoxy)-phenyl]-propionic acid] | < 6.52
5 | CCN(Cc1cc(NC(=O)C(C)(C)C)ccc1Oc1cc(CC(=O)O)ccc1OC)C(C)=O [Compound 1-45, {3-[2-[(Acetyl-ethyl-amino)-methyl]-4-(2,2-dimethyl-propionylamino)-phenoxy]-4-methoxy-phenyl}-acetic acid] | > 6.52
6 | CCN(Cc1cc(C(F)(F)F)ccc1Oc1cccc(CC(=O)O)c1)S(=O)(=O)c1ccc(C)cc1 [Compound 1-27, [3-(2-{[Ethyl-(toluene-4-sulfonyl)-amino]-methyl}-4-trifluoromethyl-phenoxy)-phenyl]-acetic acid] | > 6.52
7 | COC(=O)N(Cc1cc(NS(C)(=O)=O)ccc1Oc1cccc(CC(=O)O)c1)[C@@H](C)Cc1ccccc1 [Compound 1-41, [3-(4-Methanesulfonylamino-2-{[methoxycarbonyl-((S)-1-methyl-2-phenyl-ethyl)amino]-methyl}-phenoxy)-phenyl]-acetic acid] | > 6.52
8 | COc1ccc(CC(=O)O)cc1Oc1ccc(Br)cc1CN(Cc1ccccc1)C(C)=O [Compound 1-9, (3-{2-[(Acetyl-benzyl-amino)-methyl]-4-bromo-phenoxy}-4-methoxy-phenyl)-acetic acid] | > 6.52
9 | CCN(Cc1cc(NC(=O)c2ccc(Cl)cc2)ccc1Oc1cc(CC(=O)O)ccc1OC)C(=O)C1CC1 [Compound 1-48, (3-{4-(4-Chloro-benzoylamino)-2-[(cyclopropanecarbonyl-ethyl-amino)-methyl]-phenoxy}-4-methoxy-phenyl)-acetic acid] | > 6.52
10 | COC(=O)N(Cc1ccccc1)Cc1cc(C(F)(F)F)ccc1Oc1cc(CC(=O)O)ccc1OC [Compound 1-37, (3-{2-[(Benzyl-methoxycarbonyl-amino)-methyl]-4-trifluoromethyl-phenoxy}-4-methoxy-phenyl)-acetic acid] | > 6.52
11 | CC(=O)N(Cc1cc(Br)ccc1Oc1cccc(CC(=O)O)c1)C(C)(C)Cc1ccc(F)cc1 [Compound 1-2, {3-[2-({Acetyl-[2-(4-fluoro-phenyl)-1,1-dimethyl-ethyl]-amino}-methyl)-4-bromo-phenoxy]-phenyl}-acetic acid] | > 6.52
12 | CCN(Cc1cc(NC(=O)C(C)(C)C)ccc1Oc1cc(CC(=O)O)ccc1OC)C(=O)C1CC1 [Compound 1-47, {3-[2-[(Cyclopropanecarbonyl-ethyl-amino)-methyl]-4-(2,2-dimethyl-propionylamino)-phenoxy]-4-methoxy-phenyl}-acetic acid] | > 6.52
13 | CN(Cc1cc(C(F)(F)F)ccc1Oc1cccc(CC(=O)O)c1)S(=O)(=O)c1ccccc1C(F)(F)F [Compound 1-24, [3-(2-{[Methyl-(2-trifluoromethyl-benzenesulfonyl)-amino]-methyl}-4-trifluoromethyl-phenoxy)-phenyl]-acetic acid] | < 6.52
14 | CN(Cc1cc(C(F)(F)F)ccc1Oc1cccc(CC(=O)O)c1)C(=O)OCc1ccccc1 [Compound 1-21, (3-{2-[(Benzyloxycarbonyl-methyl-amino)-methyl]-4-trifluoromethyl-phenoxy}-phenyl)-acetic acid] | > 6.52
15 | CCN(Cc1cc(C(F)(F)F)ccc1Oc1cc(CC(=O)O)ccc1OC)C(C)=O [Compound 1-34, (3-{2-[(Acetyl-ethyl-amino)-methyl]-4-trifluoromethyl-phenoxy}-4-methoxy-phenyl)-acetic acid] | < 6.52

Results, then the compound that gave them:

Row | pIC50 | SMILES
16 | > 6.52 | CCN(Cc1cc(C(F)(F)F)ccc1Oc1cccc(CC(=O)O)c1)S(=O)(=O)c1ccc2ccccc2c1 [Compound 1-30, [3-(2-{[Ethyl-(naphthalene-2-sulfonyl)-amino]-methyl}-4-trifluoromethyl-phenoxy)-phenyl]-acetic acid]
17 | < 6.00 | COC(=O)N(Cc1cc(N(C)S(C)(=O)=O)ccc1Oc1cccc(C(C)C(=O)O)c1)[C@@H](C)Cc1ccccc1 (stereo partly drawn) [Compound 1-43, 2-[3-(4-(Methanesulfonyl-methyl-amino)-2-{[methoxycarbonyl-((S)-1-methyl-2-phenyl-ethyl)-amino]-methyl}-phenoxy)-phenyl]-propionic acid]
18 | > 6.52 | CC(=O)N(Cc1cc(C(F)(F)F)ccc1Oc1cccc(CC(=O)O)c1)C1CCc2ccccc21 (stereo in doubt) [Compound 1-13, (3-{2-[((R)-Acetyl-indan-1-yl-amino)-methyl]-4-trifluoromethyl-phenoxy}-phenyl)-acetic acid]
19 | < 6.52 | COC(=O)N(Cc1cc(N(C)C(C)=O)ccc1Oc1cccc(CC(=O)O)c1)[C@@H](C)Cc1ccccc1 [Compound 1-39, [3-(4-(Acetyl-methyl-amino)-2-{[methoxycarbonyl-((S)-1-methyl-2-phenyl-ethyl)-amino]-methyl}-phenoxy)-phenyl]-acetic acid]
20 | > 6.52 | CCN(Cc1cc(C(F)(F)F)ccc1Oc1cccc(CC(=O)O)c1)S(=O)(=O)c1ccc(OC)cc1 [Compound 1-26, [3-(2-{[Ethyl-(4-methoxy-benzenesulfonyl)-amino]-methyl}-4-trifluoromethyl-phenoxy)-phenyl]-acetic acid]
21 | > 6.52 | CC(=O)N(Cc1cc(C(F)(F)F)ccc1Oc1cccc(CC(=O)O)c1)C1CCc2ccccc21 (stereo in doubt) [Compound 1-14, (3-{2-[((S)-Acetyl-indan-1-yl-amino)-methyl]-4-trifluoromethyl-phenoxy}-phenyl)-acetic acid]
22 | < 6.52 | O=C(O)Cc1cccc(Oc2ccc(C(F)(F)F)cc2CNC(=O)c2ccc(Cl)cc2)c1 [Compound 1-15, (3-{2-[(4-Chloro-benzoylamino)-methyl]-4-trifluoromethyl-phenoxy}-phenyl)-acetic acid]
23 | < 6.52 | CCN(Cc1cc(C(F)(F)F)ccc1Oc1cc(CC(=O)O)ccc1OC)C(=O)OC [Compound 1-36, (3-{2-[(Ethyl-methoxycarbonyl-amino)-methyl]-4-trifluoromethyl-phenoxy}-4-methoxy-phenyl)-acetic acid]
24 | > 6.52 | COC(=O)N(Cc1cc(Br)ccc1Oc1cccc(CC(=O)O)c1)[C@@H](C)Cc1ccccc1 [Compound 1-5, [3-(4-Bromo-2-{[methoxycarbonyl-((S)-1-methyl-2-phenyl-ethyl)-amino]-methyl}-phenoxy)-phenyl]-acetic acid]
